Data on four compounds can be found in patent publication US7544803B2, “Vanilloid receptor ligands and their use in treatments” (Amgen Inc., priority 2004, dated 2009).

`O=C(Nc1ccc2cccnc2c1)c1cc2ncc(C(F)(F)F)cc2s1` [Example 6, 6-Trifluoromethyl-thieno[3,2-b]pyridine-2-carboxylic acid quinolin-7-ylamide] came in with a melting point of 296 °C.

For the compound `O=C(Nc1ccc2cccnc2c1)c1cc2ccc(C(F)(F)F)cc2s1`, the melting point amounted to 229.7 °C.

With `O=C(Nc1ccc2cccnc2c1)c1ccc2cc(Br)ccc2n1` [Example 36, 6-Bromo-quinoline-2-carboxylic acid quinolin-7-ylamide], the melting point lay in the range of 156 to 157 °C.

Compound `O=C(Nc1ccc2cccnc2c1)c1ccc2cc(Br)ccc2c1` [Example 32, 6-Bromo-naphthalene-2-carboxylic acid quinolin-7-ylamide] yielded a melting point of 239.5 to 241.5 °C.

One may read the melting point as the temperature of the solid-liquid transition.
